Results reported in patent publication US20240197678A1, “INHIBITORS OF THE PEPTIDYL-PROLYL CIS/TRANS ISOMERASE (PIN1) AND USES THEREOF” (DANA-FARBER CANCER INSTITUTE, INC., priority 2021, published 2024).
“Also recorded” adds a separate entry of the source.

How the values were obtained:
Pin1 [1] = biological target: T1, Pin1 (Homo sapiens, UniProt Q13526); experiment: Molt4 cells competition with Pin1-3 desthiobiotin probe, streptavidin pull-down and immunoblot (Pin1 engagement); assay type: cell-based; design: endogenous in cells; host or cells: Molt4; details: Molt4 cells treated 5 h, streptavidin pull-down, immunoblot
Method: FIG. 4 is an immunoblot displaying the result of Molt4 cells treated in a competition format with the indicated concentrations of Pin1-3, Pin1-3 P1, and Pin1-3 P2 for 5 h, followed by cell lysis, incubation with TM-03-163 (Pin1-3 desthiobiotin), streptavidin pull-down, and immunoblot analysis. […] Molt4 cells were treated in a competition format with Pin1-3, Pin1-3 P1, and Pin1-3 P2 for 5 h, followed by cell lysis, incubation with […] (Pin1-3 desthiobiotin), followed by streptavidin pulldown and immunoblot analysis.

Pin1 [2] = biological target: T1, Pin1; experiment: Fluorescence polarization (FP) assay, binding to Pin1; details: for Ki: 1 h incubation with Pin1, read-out: Ki (binding affinity to Pin1, Kenakin Ki from FP EC50)
Method: FIG. 3 is a fluorescence polarization readout following 1 h incubation of the indicated compounds with Pin1. Data points are plotted as the average of n=3 independent samples+SEM. Binding affinity to Pin1 was determined using a fluorescence polarization assay. Ki values obtained from the FP assay results were derived from the Kenakin Ki equation: Kenakin Ki=(Lb)(EC50)(Kd)/(Lo)(Ro)+Lb(Ro−Lo+Lb−Kd), where Kd [M]: Kd of the probe, EC50 [M]: obtained from FP assay, total tracer Lo [M]: probe concentration in FP, bound tracer Lb [M]: 85% of probe concentration binds to target protein, total receptor Ro [M]: Pin1 concentration in the FP assay, as described (Auld et al. Receptor binding assays for HTS and drug discovery. in Assay Guidance Manual eds. Sittampalam, G.S., et al. Eli Lilly & Company and the National Center for Advancing Translational Sciences, 2004).

T1 sequence (Q13526 whole entry): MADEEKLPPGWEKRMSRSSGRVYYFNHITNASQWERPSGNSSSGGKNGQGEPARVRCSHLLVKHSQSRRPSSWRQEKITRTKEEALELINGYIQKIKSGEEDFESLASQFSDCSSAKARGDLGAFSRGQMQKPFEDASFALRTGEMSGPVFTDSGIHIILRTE

| Ki (Pin1 [2]) | Ki (binding affinity to Pin1, Kenakin Ki from FP EC50) (Pin1 [2]; 1 h incubation with Pin1) | Structure (SMILES) | Engagement of Pin1 in Molt4 cells (Pin1 [1]) |
| --- | --- | --- | --- |
| ~70 nM |  | CC(C)(C)CN(C(=O)CCl)[C@@H]1CCS(=O)(=O)C1 (single isomer, unassigned) [Pin1-3 P1] | engages Pin1 more potently than Pin1-3 |
|  | unable to be determined | CC(C)(C)CN(C(=O)CCl)[C@H]1CCS(=O)(=O)C1 [Pin1-3 P2, (S)-2-chloro-N-(1,1-dioxidotetrahydrothiophen-3-yl)-N-neopentylacetamide] | did not display engagement; also recorded: no engagement |
| ~286 nM |  | CC(C)(C)CN(C(=O)CCl)C1CCS(=O)(=O)C1 (racemic) [Pin1-3, reference compound] |  |
